Key:
Experiment in all cases: relative viability (nuclei count vs DMSO), 5 days (fraction); higher = more cells survive
Olaparib + Bortezomib = compound: O=C(c1cc(Cc2n[nH]c(=O)c3ccccc23)ccc1F)N1CCN(C(=O)C2CC2)CC1 [Olaparib] + CC(C)C[C@H](NC(=O)[C@H](Cc1ccccc1)NC(=O)c1cnccn1)B(O)O [Bortezomib] (partner 0.002 µM)
In short: (§1)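 Relative viability divides the nuclei count in treated wells by that in vehicle wells. Lung cancer cell lines were seeded in 1536-well plates, dosed by pin tool the next day, and fixed and stained after 5 days in one step with final 0.05% Triton X-100, 1% formaldehyde and 1 ug/ml Hoechst. Dosing was a single drug or a fixed anchor-drug dose plus five library-drug doses (not always all listed) in √10 steps, and values are medians of duplicate plates imaged at 4×.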

Olaparib + Decitabine = compound: O=C(c1cc(Cc2n[nH]c(=O)c3ccccc23)ccc1F)N1CCN(C(=O)C2CC2)CC1 [Olaparib] + Nc1ncn([C@H]2C[C@H](O)[C@@H](CO)O2)c(=O)n1 [Decitabine] (partner 2 µM)
In short: as §1

Carfilzomib + Navitoclax = compound: CC(C)C[C@H](NC(=O)[C@H](CCc1ccccc1)NC(=O)CN1CCOCC1)C(=O)N[C@@H](Cc1ccccc1)C(=O)N[C@@H](CC(C)C)C(=O)[C@@]1(C)CO1 [Carfilzomib] + CC1(C)CCC(c2ccc(Cl)cc2)=C(CN2CCN(c3ccc(C(=O)NS(=O)(=O)c4ccc(N[C@H](CCN5CCOCC5)CSc5ccccc5)c(S(=O)(=O)C(F)(F)F)c4)cc3)CC2)C1 [Navitoclax] (partner 0.5 µM)
In short: as §1

Carfilzomib + Phenformin = compound: CC(C)C[C@H](NC(=O)[C@H](CCc1ccccc1)NC(=O)CN1CCOCC1)C(=O)N[C@@H](Cc1ccccc1)C(=O)N[C@@H](CC(C)C)C(=O)[C@@]1(C)CO1 [Carfilzomib] + N=C(N)NC(=N)NCCc1ccccc1 [Phenformin] (partner 250 µM)
In short: as §1

Cell Line: NCI-H1993
- relative viability (Olaparib + Bortezomib; first compound 0.08 µM): 1.06
- relative viability (Olaparib + Bortezomib; first compound 0.253 µM): 1.16
- relative viability (Olaparib + Bortezomib; first compound 2.53 µM): 1.06
- relative viability (Olaparib + Bortezomib; first compound 8 µM): 1.18
- relative viability (Olaparib + Decitabine; first compound 0.08 µM): 0.512
- relative viability (Olaparib + Decitabine; first compound 0.253 µM): 0.59
- relative viability (Olaparib + Decitabine; first compound 2.53 µM): 0.666
- relative viability (Olaparib + Decitabine; first compound 8 µM): 0.636
- relative viability (Carfilzomib + Navitoclax; first compound 0.001 µM): 0.856
- relative viability (Carfilzomib + Navitoclax; first compound 0.003162 µM): 0.773
- relative viability (Carfilzomib + Navitoclax; first compound 0.01 µM): 1.08
- relative viability (Carfilzomib + Navitoclax; first compound 0.03162 µM): 0.861
- relative viability (Carfilzomib + Navitoclax; first compound 0.1 µM): 0.527
- relative viability (Carfilzomib + Phenformin; first compound 0.001 µM): 0.482
- relative viability (Carfilzomib + Phenformin; first compound 0.003162 µM): 0.498
- relative viability (Carfilzomib + Phenformin; first compound 0.01 µM): 0.42
- relative viability (Carfilzomib + Phenformin; first compound 0.03162 µM): 0.477
- relative viability (Carfilzomib + Phenformin; first compound 0.1 µM): 0.45

Cell Line: NCI-H2009
- relative viability (Olaparib + Bortezomib; first compound 0.08 µM): 1.06
- relative viability (Olaparib + Bortezomib; first compound 0.253 µM): 0.953
- relative viability (Olaparib + Bortezomib; first compound 2.53 µM): 0.914
- relative viability (Olaparib + Bortezomib; first compound 8 µM): 0.638
- relative viability (Olaparib + Decitabine; first compound 0.08 µM): 0.391
- relative viability (Olaparib + Decitabine; first compound 0.253 µM): 0.336
- relative viability (Olaparib + Decitabine; first compound 2.53 µM): 0.337
- relative viability (Olaparib + Decitabine; first compound 8 µM): 0.32
- relative viability (Carfilzomib + Navitoclax; first compound 0.001 µM): 1.24
- relative viability (Carfilzomib + Navitoclax; first compound 0.003162 µM): 1.2
- relative viability (Carfilzomib + Navitoclax; first compound 0.01 µM): 1.15
- relative viability (Carfilzomib + Navitoclax; first compound 0.03162 µM): 0.993
- relative viability (Carfilzomib + Navitoclax; first compound 0.1 µM): 0.0572
- relative viability (Carfilzomib + Phenformin; first compound 0.001 µM): 0.514
- relative viability (Carfilzomib + Phenformin; first compound 0.003162 µM): 0.564
- relative viability (Carfilzomib + Phenformin; first compound 0.01 µM): 0.449
- relative viability (Carfilzomib + Phenformin; first compound 0.03162 µM): 0.155
- relative viability (Carfilzomib + Phenformin; first compound 0.1 µM): 0.101

Cell Line: NCI-H2023
- relative viability (Olaparib + Bortezomib; first compound 0.08 µM): 1.13
- relative viability (Olaparib + Bortezomib; first compound 0.253 µM): 0.884
- relative viability (Olaparib + Bortezomib; first compound 2.53 µM): 0.931
- relative viability (Olaparib + Bortezomib; first compound 8 µM): 0.675
- relative viability (Olaparib + Decitabine; first compound 0.08 µM): 0.172
- relative viability (Olaparib + Decitabine; first compound 0.253 µM): 0.143
- relative viability (Olaparib + Decitabine; first compound 2.53 µM): 0.135
- relative viability (Olaparib + Decitabine; first compound 8 µM): 0.126
- relative viability (Carfilzomib + Navitoclax; first compound 0.001 µM): 1
- relative viability (Carfilzomib + Navitoclax; first compound 0.003162 µM): 0.967
- relative viability (Carfilzomib + Navitoclax; first compound 0.01 µM): 1.02
- relative viability (Carfilzomib + Navitoclax; first compound 0.03162 µM): 0.907
- relative viability (Carfilzomib + Navitoclax; first compound 0.1 µM): 0.0939
- relative viability (Carfilzomib + Phenformin; first compound 0.001 µM): 0.406
- relative viability (Carfilzomib + Phenformin; first compound 0.003162 µM): 0.444
- relative viability (Carfilzomib + Phenformin; first compound 0.01 µM): 0.416
- relative viability (Carfilzomib + Phenformin; first compound 0.03162 µM): 0.145
- relative viability (Carfilzomib + Phenformin; first compound 0.1 µM): 0.0723

Cell Line: NCI-H2085
- relative viability (Olaparib + Bortezomib; first compound 0.08 µM): 1.25
- relative viability (Olaparib + Bortezomib; first compound 0.253 µM): 0.92
- relative viability (Olaparib + Bortezomib; first compound 2.53 µM): 0.981
- relative viability (Olaparib + Bortezomib; first compound 8 µM): 0.808
- relative viability (Olaparib + Decitabine; first compound 0.08 µM): 0.545
- relative viability (Olaparib + Decitabine; first compound 0.253 µM): 0.49
- relative viability (Olaparib + Decitabine; first compound 2.53 µM): 0.43
- relative viability (Olaparib + Decitabine; first compound 8 µM): 0.46
- relative viability (Carfilzomib + Navitoclax; first compound 0.001 µM): 1.08
- relative viability (Carfilzomib + Navitoclax; first compound 0.003162 µM): 1.23
- relative viability (Carfilzomib + Navitoclax; first compound 0.01 µM): 1.02
- relative viability (Carfilzomib + Navitoclax; first compound 0.03162 µM): 0.436
- relative viability (Carfilzomib + Navitoclax; first compound 0.1 µM): 0.242
- relative viability (Carfilzomib + Phenformin; first compound 0.001 µM): 0.708
- relative viability (Carfilzomib + Phenformin; first compound 0.003162 µM): 0.862
- relative viability (Carfilzomib + Phenformin; first compound 0.01 µM): 0.491
- relative viability (Carfilzomib + Phenformin; first compound 0.03162 µM): 0.259
- relative viability (Carfilzomib + Phenformin; first compound 0.1 µM): 0.244

Cell Line: NCI-H2087
- relative viability (Olaparib + Bortezomib; first compound 0.08 µM): 0.96
- relative viability (Olaparib + Bortezomib; first compound 0.253 µM): 0.753
- relative viability (Olaparib + Bortezomib; first compound 2.53 µM): 0.842
- relative viability (Olaparib + Bortezomib; first compound 8 µM): 0.66
- relative viability (Olaparib + Decitabine; first compound 0.08 µM): 0.249
- relative viability (Olaparib + Decitabine; first compound 0.253 µM): 0.189
- relative viability (Olaparib + Decitabine; first compound 2.53 µM): 0.262
- relative viability (Olaparib + Decitabine; first compound 8 µM): 0.167
- relative viability (Carfilzomib + Navitoclax; first compound 0.001 µM): 1.07
- relative viability (Carfilzomib + Navitoclax; first compound 0.003162 µM): 0.97
- relative viability (Carfilzomib + Navitoclax; first compound 0.01 µM): 0.721
- relative viability (Carfilzomib + Navitoclax; first compound 0.03162 µM): 0.115
- relative viability (Carfilzomib + Navitoclax; first compound 0.1 µM): 0.0804
- relative viability (Carfilzomib + Phenformin; first compound 0.001 µM): 0.471
- relative viability (Carfilzomib + Phenformin; first compound 0.003162 µM): 0.445
- relative viability (Carfilzomib + Phenformin; first compound 0.01 µM): 0.13
- relative viability (Carfilzomib + Phenformin; first compound 0.03162 µM): 0.0358
- relative viability (Carfilzomib + Phenformin; first compound 0.1 µM): 0.0687

Cell Line: NCI-H2126
- relative viability (Olaparib + Bortezomib; first compound 0.08 µM): 1.22
- relative viability (Olaparib + Bortezomib; first compound 0.253 µM): 0.994
- relative viability (Olaparib + Bortezomib; first compound 2.53 µM): 1.07
- relative viability (Olaparib + Bortezomib; first compound 8 µM): 1.08
- relative viability (Olaparib + Decitabine; first compound 0.08 µM): 0.614
- relative viability (Olaparib + Decitabine; first compound 0.253 µM): 0.544
- relative viability (Olaparib + Decitabine; first compound 2.53 µM): 0.541
- relative viability (Olaparib + Decitabine; first compound 8 µM): 0.542
- relative viability (Carfilzomib + Navitoclax; first compound 0.001 µM): 0.826
- relative viability (Carfilzomib + Navitoclax; first compound 0.003162 µM): 0.884
- relative viability (Carfilzomib + Navitoclax; first compound 0.01 µM): 0.871
- relative viability (Carfilzomib + Navitoclax; first compound 0.03162 µM): 0.865
- relative viability (Carfilzomib + Navitoclax; first compound 0.1 µM): 0.592
- relative viability (Carfilzomib + Phenformin; first compound 0.001 µM): 0.521
- relative viability (Carfilzomib + Phenformin; first compound 0.003162 µM): 0.621
- relative viability (Carfilzomib + Phenformin; first compound 0.01 µM): 0.532
- relative viability (Carfilzomib + Phenformin; first compound 0.03162 µM): 0.441
- relative viability (Carfilzomib + Phenformin; first compound 0.1 µM): 0.276

Cell Line: NCI-H2347
- relative viability (Olaparib + Bortezomib; first compound 0.08 µM): 1.28
- relative viability (Olaparib + Bortezomib; first compound 0.253 µM): 0.715
- relative viability (Olaparib + Bortezomib; first compound 2.53 µM): 0.974
- relative viability (Olaparib + Bortezomib; first compound 8 µM): 0.676
- relative viability (Olaparib + Decitabine; first compound 0.08 µM): 0.644
- relative viability (Olaparib + Decitabine; first compound 0.253 µM): 0.558
- relative viability (Olaparib + Decitabine; first compound 2.53 µM): 0.531
- relative viability (Olaparib + Decitabine; first compound 8 µM): 0.516
- relative viability (Carfilzomib + Navitoclax; first compound 0.001 µM): 0.698
- relative viability (Carfilzomib + Navitoclax; first compound 0.003162 µM): 0.931
- relative viability (Carfilzomib + Navitoclax; first compound 0.01 µM): 0.733
- relative viability (Carfilzomib + Navitoclax; first compound 0.03162 µM): 0.512
- relative viability (Carfilzomib + Navitoclax; first compound 0.1 µM): 0.235
- relative viability (Carfilzomib + Phenformin; first compound 0.001 µM): 0.274
- relative viability (Carfilzomib + Phenformin; first compound 0.01 µM): 0.341
- relative viability (Carfilzomib + Phenformin; first compound 0.03162 µM): 0.163
- relative viability (Carfilzomib + Phenformin; first compound 0.1 µM): 0.141

Cell Line: NCI-H2405
- relative viability (Olaparib + Bortezomib; first compound 0.08 µM): 1.04
- relative viability (Olaparib + Bortezomib; first compound 0.253 µM): 0.914
- relative viability (Olaparib + Bortezomib; first compound 2.53 µM): 1.01
- relative viability (Olaparib + Bortezomib; first compound 8 µM): 0.934
- relative viability (Olaparib + Decitabine; first compound 0.08 µM): 0.681
- relative viability (Olaparib + Decitabine; first compound 0.253 µM): 0.55
- relative viability (Olaparib + Decitabine; first compound 2.53 µM): 0.458
- relative viability (Olaparib + Decitabine; first compound 8 µM): 0.486
- relative viability (Carfilzomib + Navitoclax; first compound 0.003162 µM): 1.26
- relative viability (Carfilzomib + Navitoclax; first compound 0.01 µM): 1.04
- relative viability (Carfilzomib + Navitoclax; first compound 0.03162 µM): 0.108
- relative viability (Carfilzomib + Navitoclax; first compound 0.1 µM): 0.092
- relative viability (Carfilzomib + Phenformin; first compound 0.003162 µM): 0.432
- relative viability (Carfilzomib + Phenformin; first compound 0.01 µM): 0.395
- relative viability (Carfilzomib + Phenformin; first compound 0.03162 µM): 0.298
- relative viability (Carfilzomib + Phenformin; first compound 0.1 µM): 0.129

Cell Line: NCI-H3122
- relative viability (Olaparib + Bortezomib; first compound 0.08 µM): 1.01
- relative viability (Olaparib + Bortezomib; first compound 0.253 µM): 0.985
- relative viability (Olaparib + Bortezomib; first compound 2.53 µM): 0.993
- relative viability (Olaparib + Bortezomib; first compound 8 µM): 0.947
- relative viability (Olaparib + Decitabine; first compound 0.08 µM): 0.385
- relative viability (Olaparib + Decitabine; first compound 0.253 µM): 0.351
- relative viability (Olaparib + Decitabine; first compound 2.53 µM): 0.259
- relative viability (Olaparib + Decitabine; first compound 8 µM): 0.256
- relative viability (Carfilzomib + Navitoclax; first compound 0.001 µM): 1.03
- relative viability (Carfilzomib + Navitoclax; first compound 0.003162 µM): 1.07
- relative viability (Carfilzomib + Navitoclax; first compound 0.01 µM): 1.05
- relative viability (Carfilzomib + Navitoclax; first compound 0.03162 µM): 0.992
- relative viability (Carfilzomib + Navitoclax; first compound 0.1 µM): 0.672
- relative viability (Carfilzomib + Phenformin; first compound 0.001 µM): 0.375
- relative viability (Carfilzomib + Phenformin; first compound 0.003162 µM): 0.446
- relative viability (Carfilzomib + Phenformin; first compound 0.01 µM): 0.366
- relative viability (Carfilzomib + Phenformin; first compound 0.03162 µM): 0.278
- relative viability (Carfilzomib + Phenformin; first compound 0.1 µM): 0.0931
